This note sets out measurements from ChEMBL document CHEMBL1137898, “Benzopyranones with retro-amide side chains as (inhibitory) beta-lactamase substrates” (Bioorg Med Chem Lett, 2004).

Experiment [1] concerns the target Beta-lactamase OXA-1 (Escherichia coli) (UniProt P13661). Put plainly: Steady state kinetic as limiting rate of OXA-1 beta-lactamase hydrolysis.
Experiment [2] concerns the target Beta-lactamase TEM (Escherichia coli) (UniProt P62593). Put plainly: Steady state kinetic as limiting rate of TEM-2 beta-lactamase hydrolysis.
Experiment [3] deals with Beta-lactamase (Enterobacter cloacae) (UniProt P05364). Put plainly: Steady state kinetic as limiting rate of Enterobacter cloacae P99 Beta-lactamase catalyzed hydrolysis.
Sequence of Beta-lactamase (Enterobacter cloacae) (P05364 21-381 limits assumed): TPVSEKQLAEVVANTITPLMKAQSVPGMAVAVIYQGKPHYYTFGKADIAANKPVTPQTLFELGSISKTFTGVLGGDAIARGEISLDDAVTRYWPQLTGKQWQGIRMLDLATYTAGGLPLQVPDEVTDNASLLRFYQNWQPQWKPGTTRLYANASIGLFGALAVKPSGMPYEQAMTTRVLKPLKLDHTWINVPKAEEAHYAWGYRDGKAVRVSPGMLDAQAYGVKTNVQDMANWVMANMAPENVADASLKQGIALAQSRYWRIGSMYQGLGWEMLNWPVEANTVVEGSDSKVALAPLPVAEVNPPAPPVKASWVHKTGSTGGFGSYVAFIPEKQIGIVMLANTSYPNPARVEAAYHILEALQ
For experiment [4], the target named is Beta-lactamase (Staphylococcus aureus) (UniProt P00807). Briefly: Steady state kinetic as limiting rate of Staphylococcus aureus PC1 Beta-lactamase hydrolysis.
Sequence of Beta-lactamase (Staphylococcus aureus) (P00807 whole entry): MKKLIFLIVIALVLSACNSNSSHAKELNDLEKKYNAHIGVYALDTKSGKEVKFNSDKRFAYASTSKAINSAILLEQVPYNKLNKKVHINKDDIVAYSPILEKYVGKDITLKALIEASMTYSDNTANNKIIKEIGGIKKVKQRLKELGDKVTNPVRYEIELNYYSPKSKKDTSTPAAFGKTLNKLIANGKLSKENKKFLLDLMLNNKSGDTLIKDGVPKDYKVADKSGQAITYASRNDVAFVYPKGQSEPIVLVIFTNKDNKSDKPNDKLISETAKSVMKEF
In experiment [5] the target is D-alanyl-D-alanine carboxypeptidase (Streptomyces sp. R61) (UniProt P15555). Briefly: Second order rate constant for inactivation of Streptomyces R61 D-alanyl-D-alanine carboxypeptidase. The following applies: Streptomyces spp.
Sequence of D-alanyl-D-alanine carboxypeptidase (Streptomyces sp. R61) (P15555 whole entry): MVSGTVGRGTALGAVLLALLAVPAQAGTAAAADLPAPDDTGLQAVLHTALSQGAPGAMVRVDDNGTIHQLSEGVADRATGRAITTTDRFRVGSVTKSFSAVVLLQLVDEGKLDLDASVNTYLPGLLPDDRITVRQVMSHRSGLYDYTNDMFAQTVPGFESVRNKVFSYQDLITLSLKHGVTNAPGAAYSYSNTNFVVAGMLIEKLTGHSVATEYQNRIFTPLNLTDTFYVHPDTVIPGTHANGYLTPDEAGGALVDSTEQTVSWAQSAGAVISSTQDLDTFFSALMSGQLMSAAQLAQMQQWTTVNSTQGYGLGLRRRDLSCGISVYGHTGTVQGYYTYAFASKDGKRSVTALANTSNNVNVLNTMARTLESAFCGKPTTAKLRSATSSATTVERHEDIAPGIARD

A value given as a limit tells only on which side of the number the result lay.

Sequence of Beta-lactamase OXA-1 (Escherichia coli) (P13661 whole entry): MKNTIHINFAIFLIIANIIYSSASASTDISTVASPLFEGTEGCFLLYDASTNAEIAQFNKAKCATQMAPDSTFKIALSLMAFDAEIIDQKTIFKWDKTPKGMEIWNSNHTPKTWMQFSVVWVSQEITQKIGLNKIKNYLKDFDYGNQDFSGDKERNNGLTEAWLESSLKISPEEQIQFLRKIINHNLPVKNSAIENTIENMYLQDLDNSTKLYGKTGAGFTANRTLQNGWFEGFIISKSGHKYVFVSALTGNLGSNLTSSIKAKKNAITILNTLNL
Sequence of Beta-lactamase TEM (Escherichia coli) (P62593 whole entry): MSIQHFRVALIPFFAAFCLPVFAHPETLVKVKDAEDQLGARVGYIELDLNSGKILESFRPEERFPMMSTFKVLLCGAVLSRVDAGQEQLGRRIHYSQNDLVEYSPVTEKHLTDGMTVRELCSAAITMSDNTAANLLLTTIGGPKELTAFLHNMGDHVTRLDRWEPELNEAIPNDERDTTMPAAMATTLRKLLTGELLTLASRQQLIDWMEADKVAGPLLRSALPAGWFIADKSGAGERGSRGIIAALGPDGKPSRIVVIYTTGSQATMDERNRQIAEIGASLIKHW

With `CC(=O)OCC1=C(C(=O)O)N2C(=O)[C@@H](NC(=O)Cc3cccs3)[C@H]2SC1`, the K cat was found to be 1.2 s⁻¹ in experiment [1], 120 s⁻¹ in experiment [2], 200 s⁻¹ in experiment [3] and 0.001 s⁻¹ in experiment [4].

For the compound `O=C(Cc1ccccc1)NC1Cc2cccc(C(=O)O)c2OC1=O` (stereo not given), the K cat was found to be 1.2 s⁻¹ in experiment [1], 2.07 s⁻¹ in experiment [2], 5.4 s⁻¹ in experiment [3] and 0.0047 s⁻¹ in experiment [4]. Also, in experiment [5], the K was 1.5 1/sM.

Consider `O=C(O)c1ccc2c(c1)OC(=O)C(C(=O)NCc1ccccc1)C2` (stereo not given), for which the K cat in experiment [2] is greater than 0.02 s⁻¹; in experiment [3], 1.18 s⁻¹; in experiment [4] it was greater than 0.005 s⁻¹.

With `O=C(O)c1cccc2c1OC(=O)C(C(=O)NCc1ccccc1)C2` (stereo not given), the K cat was 0.25 s⁻¹ in experiment [1], 25.5 s⁻¹ in experiment [2], 0.44 s⁻¹ in experiment [3] and 0.01 s⁻¹ in experiment [4]. For the same compound, the K in experiment [5] was 22 1/sM.

Turning to `O=C(Cc1ccccc1)NC1Cc2ccc(C(=O)O)cc2OC1=O` (stereo not given), the results for the K cat in experiment [2], in experiment [3] and in experiment [4] were greater than 1 s⁻¹, 5.6 s⁻¹ and 0.02 s⁻¹, respectively.
